Source: patent US20230149421A1, “MEDICAMENT FOR PREVENTING OR TREATING IRRITABLE BOWEL SYNDROME OR INFLAMMATORY BOWEL DISEASE” (priority 2020, published 2023)

Tests used:
Assay type in all cases: in vivo, Sprague-Dawley rats
[1] = test system: DNBS-induced colitis model; assay: Change in body weight and spleen weight in DNBS-induced colitis model; details: DNBS rats; for change in body weights: 3, 10 and 30 mg/kg oral immediately after DNBS, 6 days; for spleen weights compared to DNBS-induced colitis model: test compound groups (3, 10, 30 mg/kg) oral
Method: Sprague-Dawley rats (body weights of 200 to 225 g) which were male albino rats were used as model animals. Three model animals were housed in one cage in a temperature-controlled environment at 22-24° C., 50-60% humidity, and a light cycle of 12 hours, were given ad libitum access to standard laboratory feed and tap water, and were not used for at least one week after being brought into the laboratory.
A model in which colitis was induced by 2,4-dinitrobenzenesulfonic acid (hereinafter, denoted as DNBS, manufactured by Sigma-Aldrich, Inc.) (in the present specification, referred to as a “DNBS-induced colitis model”) was prepared.
(§1) The induction of colitis was performed according to the method in Antonioli L, et al. (Non Patent Literature 8). 15 mg of 2,4-dinitrobenzenesulfonic acid (DNBS) in 0.25 ml of 50% ethanol was rectally administered through a polyethylene PE-60 catheter inserted 8 cm proximal to the anus, during a short period of anesthesia by Isoflurane (manufactured by Abbott Laboratories). To the control rat, 0.25 ml of 50% ethanol was administered.
Food intake was monitored everyday since initiation of the drug therapy. Furthermore, body weights of the rats were measured every morning, and evidence of blood in diarrhea and a stool or rectal bleeding was examined during the experimental period.

[2] = test system: DNBS-induced colitis model; assay: Microscopic (histological) damage score of colonic tissue in DNBS-induced colitis model; details: DNBS rats, 6 days; for histological damage in colonic tissues compared to DNBS-induced colitis model: test compound groups (3, 10, 30 mg/kg) oral
Method: as §1
(§2) The DNBS-induced colitis model and the control rats were euthanized in a CO2 chamber. After death, mid-abdominal incision was performed, and the colon was excised, which was then opened in a longitudinal direction (longitudinal muscle direction), washed with sterile physiological saline, and split into two parts in the longitudinal direction.
Evaluation of microscopic damage and inflammation was performed with an optical microscope using a tissue section obtained from a specimen of the entire intestine and stained with hematoxylin/eosin. Evaluation of severity of enteritis was performed by scoring the microscopic damage (histological damage) of the samples. As described above, colonic tissues that had been excised and washed with physiological saline were used as the samples.
The scoring was performed according to the criteria determined by making a minor amendment on the criteria reported in Non Patent Literature 11 (Non Patent Literature 12). The microscopic scoring (scoring of histological damage) criteria for the colonic damage are as shown in the following (1) to (5) (Non Patent Literatures 8 to 10), and the total points in (1) to (5) are used as a score.
(1) Loss of mucosal structure (no loss of mucosal structure: 0 points and mild to severe loss of mucosal structure: 1 to 3 points)
(2) Cellular infiltration (no cellular infiltration: 0 points and mild to severe cellular infiltration: 1 to 3 points)
(3) Muscle thickening (no muscle thickening: 0 points and mild to severe muscle thickening: 1 to 3 points) (4) Crypt abscess (none: 0 points and present: 1 point)
(5) Reduction in goblet cells (not reduced: 0 points and reduced: 1 point) […]

[3] = test system: DNBS-induced colitis model; assay: Macroscopic damage score of colonic tissue in DNBS-induced colitis model; details: DNBS rats, 6 days
Method: as §1, §2
Evaluation was performed by scoring the macroscopic damage of the samples. As described above, colonic tissues that had been excised and washed with physiological saline were used as the samples.
The scoring was performed according to the criteria determined by making a minor amendment on the criteria reported in Non Patent Literature 11 (Non Patent Literature 12). […]
(4) Thickness (mm) of colonic tissue (colonic wall): 1 point was scored for 1 mm […]

[4] = test system: occludin; assay: Occludin expression in colonic tissue (western blotting), DNBS-induced colitis model; details: DNBS rats; 10 mg/kg oral
[5] = test system: caspase-1; assay: Caspase-1 expression in colonic tissue (western blotting), DNBS-induced colitis model; details: DNBS rats; 10 mg/kg oral
Method: as §1
Sample preparation and a test method were performed by the same methods as those in Example 7.
Samples were prepared and a test was performed in the same manner as in Example 7, except that an anti-procaspase-1 antibody and an anti-caspase antibody (all ad1872, manufactured by Abcam plc., dilution 1: 1,000) were used as the antibodies, instead of the anti-occludin antibody.
Sample preparation and a test method were performed by the same methods as those in Example 8.

For O=C1CC(=O)N(c2cccc(-c3noc(=S)[nH]3)c2)c2ccc3ccccc3c2N1.[Na] [Compound A17, 5-[3-(5-thioxo-4H-[1,2,4]oxadiazol-3-yl)phenyl]-1H-naphtho[1,2-b][1,4]diazepine-2,4(3H,5H)-dione sodium salt], the “change in body weights” value [1] was “increase in body weights”, the “spleen weights compared to DNBS-induced colitis model” value [1] was “significantly decreased” and the “histological damage in colonic tissues compared to DNBS-induced colitis model” value [2] was “not affected”. The “macroscopic damage scores compared to DNBS-induced colitis model” value ([3]; 10 and 30 mg/kg oral) was “significant decrease”, the “occludin expression in inflamed tissues compared to DNBS-induced colitis model” value [4] was “increased” and the “caspase-1 expression in colon in which inflammation was induced” value [5] was “cannot be decreased”.
In the case of O=C1CC(=O)N(c2ccc(NC(=O)c3ccccc3I)cc2)c2ccc3ccccc3c2N1 [Compound B48, 5-[4-(2-iodobenzoylamino)phenyl]-1H-naphtho[1,2-b][1,4]diazepine-2,4(3H,5H)-dione], the “change in body weights” value [1] is reported as “increase in body weights”, the “spleen weights compared to DNBS-induced colitis model” value [1] is reported as “significantly decreased” and the “microscopic score compared to DNBS-induced colitis model” value ([2]; 10 and 30 mg/kg oral) is reported as “significant improvement”. For the same compound, the “histological damage in colonic tissues compared to DNBS-induced colitis model” value [2] was “decreased in a dose-dependent manner”, the “macroscopic damage scores compared to DNBS-induced colitis model” value ([3]; 3, 10 and 30 mg/kg oral) was “significant decrease” and the “occludin expression in inflamed tissues compared to DNBS-induced colitis model” value [4] was “increased”. The “caspase-1 expression in colon in which inflammation was induced” value [5] was “decreased”.
